The values below come from ChEMBL document CHEMBL1806385, “Discovery of potent, soluble and orally active TRPV1 antagonists. Structure-activity relationships of a series of isoxazoles” (Bioorg Med Chem Lett, 2011).

Molecules are shown by their SMILES. In brackets after ≈: the same amount, converted by molar mass.

Data set [1] in a line: Intrinsic clearance in human liver microsomes. The data set is classed as ADME, Microsome. On the technique in general: Liver microsomes are vesicles of endoplasmic reticulum, rich in cytochrome P450 enzymes.
A further data set is described as follows: physchem. The note with it: phosphate buffered saline, pH 7.4.
Data set [2] can be described thus: Intrinsic clearance in rat liver microsomes. It is filed as ADME, Microsome.
The target in data set [3] is Transient receptor potential cation channel subfamily V member 1 (Homo sapiens, UniProt Q8NER1).
Transient receptor potential cation channel subfamily V member 1, sequence (Q8NER1 whole entry): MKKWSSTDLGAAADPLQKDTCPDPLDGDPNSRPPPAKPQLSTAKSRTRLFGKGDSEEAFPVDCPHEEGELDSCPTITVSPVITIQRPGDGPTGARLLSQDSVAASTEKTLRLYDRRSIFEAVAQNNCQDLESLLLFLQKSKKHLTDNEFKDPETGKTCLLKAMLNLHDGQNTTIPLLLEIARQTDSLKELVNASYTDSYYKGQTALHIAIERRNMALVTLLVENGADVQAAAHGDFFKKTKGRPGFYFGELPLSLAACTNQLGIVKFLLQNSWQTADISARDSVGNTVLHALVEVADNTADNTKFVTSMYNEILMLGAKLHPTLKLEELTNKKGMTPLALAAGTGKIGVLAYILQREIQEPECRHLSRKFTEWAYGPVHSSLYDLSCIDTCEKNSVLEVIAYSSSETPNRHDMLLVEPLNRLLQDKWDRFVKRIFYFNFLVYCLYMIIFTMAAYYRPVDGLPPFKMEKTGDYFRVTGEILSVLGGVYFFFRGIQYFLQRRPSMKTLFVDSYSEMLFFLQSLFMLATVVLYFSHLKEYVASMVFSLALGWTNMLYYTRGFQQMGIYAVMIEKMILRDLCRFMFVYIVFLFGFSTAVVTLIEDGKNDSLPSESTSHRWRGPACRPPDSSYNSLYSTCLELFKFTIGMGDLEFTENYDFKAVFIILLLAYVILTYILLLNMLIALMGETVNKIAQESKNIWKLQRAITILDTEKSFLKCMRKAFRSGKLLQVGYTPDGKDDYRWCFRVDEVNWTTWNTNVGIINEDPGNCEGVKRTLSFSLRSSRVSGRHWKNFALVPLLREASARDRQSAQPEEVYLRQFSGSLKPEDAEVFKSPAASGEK
Description: Antagonist activity at human TRPV1 expressed in CHO cells assessed as inhibition of calcium flux by FLIPR assay
A short description of data set [4]: Plasma protein binding in human. The data set is classed as ADME, cell-free. The note with it: read-out: PPB (converted).
Data set [5] in a line: Plasma protein binding in Wistar rat. It is filed as ADME, cell-free. The note with it: read-out: PPB (converted).
Data set [6] can be described thus: AUClast in po dosed rat. On the set-up: route oral, time 0 - last. It is filed as ADME, organism-based. The note with it: plasma.
The nature of data set [7]: Intrinsic clearance in rat hepatocytes assessed per 10^6 cells. The data set is classed as ADME, cell-based, Liver, Hepatocyte.
A short description of data set [8]: Intrinsic clearance in human hepatocytes assessed per 10^6 cells. The data set is classed as ADME, cell-based, Liver, Hepatocyte.
The test system of the next data set is Rattus norvegicus. Put plainly: Antihyperalgesic activity in po dosed rat capsaicin hargreaves model assessed as reversal of capsaicin-induced thermal hyperalgesia measured by paw withdrawal latency administered 2 hrs before capsaicin challenge. The data set is classed as functional.

Description for physchem: Intrinsic solubility of the compound in phosphate buffered saline at pH 7.4 by shake-flask method

In the case of `O=C(N[C@@H]1CCC[C@H](O)C1)c1noc(-c2ccc(C(F)(F)F)cc2)c1Cl`, the microsomal CLint in data set [1] and in [2] was less than 12 µL/min/mg in each case. In “physchem”, the solubility (thermodynamic) (commonly solubility found after equilibrating the solid with the medium) is less than 1 µg/mL. Also, the IC50 (commonly the midpoint of a concentration-inhibition curve) in data set [3] is 0.501 nM. In addition, the fraction unbound in data set [4] is 0.01; in data set [5], 0.007.

The compound `O=C(N[C@@H]1CCC[C@H](O)C1)c1noc(-c2ccc(F)cc2)c1Cl` returned a solubility (thermodynamic) in “physchem” of 38 µg/mL (≈ 112 µM). Further, the IC50 in [3] is 50.1 nM.

Consider `CC(C)NCc1c(C(=O)N[C@@H]2CCC[C@H](O)C2)noc1-c1ccc(C(F)(F)F)cc1`, for which the AUC(0-t) (usually exposure summed from dosing to a finite time, without extrapolation to infinity) in data set [6] was 2730 ng·h/mL. For the same compound, the hepatocyte CLint in [7] and in data set [8] was less than 6 µL/min/1e6 cells in each case. Also, in the data set with Rattus norvegicus, the MED is 30 µmol/kg.

In “physchem”, `O=C(N[C@@H]1CCC[C@H](O)C1)c1noc(-c2ccc(C(F)(F)F)c(F)c2)c1Cl` returned a solubility (thermodynamic) of less than 1 µg/mL. The compound also showed an IC50 in [3] of 0.631 nM.

For `O=C(N[C@@H]1CCC[C@H](O)C1)c1noc(-c2ccc(Cl)cc2)c1Cl`, the thermodynamic solubility in the data set “physchem” turned out to be 3 µg/mL (≈ 8.45 µM). The compound also had an IC50 in data set [3] of 5.01 nM.

Turning to `O=C(N[C@@H]1CCC[C@H](O)C1)c1noc(-c2ccc(Cl)c(F)c2)c1Cl`, the thermodynamic solubility in “physchem” worked out at 2 µg/mL (≈ 5.36 µM). In data set [3], this compound showed an IC50 of 0.631 nM.

As for `Cc1c(C(=O)N[C@@H]2CCC[C@H](O)C2)noc1-c1ccc(C(F)(F)F)c(F)c1`, in the data set “physchem”, the thermodynamic solubility was determined as 4 µg/mL (≈ 10.4 µM). Besides, it took 2 nM to reach half-maximal inhibition in data set [3] (IC50).

In the data set “physchem”, `CCOc1cc(Cl)ccc1-c1onc(C(=O)N[C@@H]2CCC[C@H](O)C2)c1C` registered a thermodynamic solubility of 27 µg/mL (≈ 71.3 µM). In addition, the IC50 in data set [3] is 12.6 nM.

In the data set “physchem”, `CCOc1cc(Cl)ccc1-c1onc(C(=O)NC2CCC(O)CC2)c1C` (stereo not drawn) displayed a solubility (thermodynamic) of 28 µg/mL (≈ 73.9 µM). The IC50 in [3] is 200 nM.

The compound `CCOc1cc(Cl)ccc1-c1onc(C(=O)NC2CCOCC2)c1C` gave a solubility (thermodynamic) in “physchem” of less than 1 µg/mL. Besides, in data set [3], the IC50 is 12.6 nM.

For `O=C(N[C@@H]1CCC[C@H](O)C1)c1onc(-c2ccc(Cl)c(F)c2)c1Cl`, in the data set “physchem”, the thermodynamic solubility is 11 µg/mL (≈ 29.5 µM). In addition, the IC50 in data set [3] is 3.16 nM.

`O=C(N[C@@H]1CCC[C@H](O)C1)c1onc(-c2ccc(F)cc2)c1Cl`: the thermodynamic solubility in the data set “physchem” stood at 47 µg/mL (≈ 139 µM). Further, the IC50 in data set [3] was 794 nM.

For `O=C(N[C@@H]1CCC[C@H](O)C1)c1noc(-c2ccc(C(F)(F)F)cc2)c1CO`, the microsomal CLint (usually a measure of how fast metabolising enzymes remove a compound, apart from limits set by blood flow) was less than 12 µL/min/mg in [1] and 27 µL/min/mg in data set [2]. Besides, the solubility (thermodynamic) in “physchem” was 73 µg/mL (≈ 190 µM). It took 79.4 nM to reach half-maximal inhibition in data set [3] (IC50). Besides, the fraction unbound in data set [4] was 0.081; in data set [5], 0.091.

Compound `O=C(NC1CCC(O)CC1)c1noc(-c2ccc(C(F)(F)F)cc2)c1CO` (stereo not drawn) registered a thermodynamic solubility in “physchem” of 70 µg/mL (≈ 182 µM). 1580 nM corresponded to half-maximal inhibition in [3] (IC50).

In turn, `CC[C@H](CO)NC(=O)c1noc(-c2ccc(C(F)(F)F)cc2)c1CO` came in with a solubility (thermodynamic) in the data set “physchem” of 66 µg/mL (≈ 184 µM). Further, the IC50 in data set [3] was 1580 nM.

The compound `O=C(NC1CCOCC1)c1noc(-c2ccc(C(F)(F)F)cc2)c1CO` showed a solubility (thermodynamic) in the data set “physchem” of 35 µg/mL (≈ 94.5 µM). In data set [3], this compound gave an IC50 of 3160 nM.

In turn, `CC(C)[C@H](C)NC(=O)c1noc(-c2ccc(C(F)(F)F)cc2)c1CO` gave a solubility (thermodynamic) in “physchem” of 1.5 µg/mL (≈ 4.21 µM). Moreover, in data set [3], the IC50 is 126 nM.

Take `O=C(NC1CCCC1)c1noc(-c2ccc(C(F)(F)F)cc2)c1CO`: the solubility (thermodynamic) in the data set “physchem” is 1 µg/mL (≈ 2.82 µM). The compound further had an IC50 in data set [3] of 158 nM.

The compound `CC(O)c1c(C(=O)NC2CCCC2)noc1-c1ccc(C(F)(F)F)cc1` (stereo not drawn) yielded a solubility (thermodynamic) in the data set “physchem” of less than 1 µg/mL. The IC50 in [3] was 1000 nM.

`CC(C)(O)c1c(C(=O)NC2CCCC2)noc1-c1ccc(C(F)(F)F)cc1` gave a solubility (thermodynamic) in “physchem” of less than 1 µg/mL. The same compound had an IC50 in data set [3] of 5010 nM.

In the data set “physchem”, `CC(C)[C@H](C)NC(=O)c1noc(-c2ccc(C(F)(F)F)c(F)c2)c1CO` showed a solubility (thermodynamic) of 1.4 µg/mL (≈ 3.74 µM). The midpoint of inhibition in data set [3], the IC50, lay at 20 nM.

In the data set “physchem”, `O=C(NC1CCCC1)c1noc(-c2ccc(C(F)(F)F)c(F)c2)c1CO` came in with a solubility (thermodynamic) of 73 µg/mL (≈ 196 µM). The compound also had an IC50 in data set [3] of 39.8 nM.

In the case of `CC[C@H](CO)NC(=O)c1noc(-c2ccc(C(F)(F)F)c(F)c2)c1CO`, the thermodynamic solubility in “physchem” came to 31 µg/mL (≈ 82.4 µM). Further, in data set [3], it took 158 nM to reach half-maximal inhibition (IC50).

In turn, `CCNC(=O)c1c(C(=O)NC2CCCC2)noc1-c1ccc(C(F)(F)F)cc1` showed a thermodynamic solubility in the data set “physchem” of 1.6 µg/mL (≈ 4.05 µM). This compound showed an IC50 in [3] of 5010 nM.

For `CN(C)C(=O)c1c(C(=O)NC2CCCC2)noc1-c1ccc(C(F)(F)F)cc1`, the thermodynamic solubility in the data set “physchem” is less than 1 µg/mL. In data set [3], this compound showed an IC50 of 2000 nM.

`O=C(NC1CCCC1)c1noc(-c2ccc(C(F)(F)F)cc2)c1C(=O)O` yielded a solubility (thermodynamic) in “physchem” of 72 µg/mL (≈ 195 µM). Besides, the half-maximal inhibitory concentration (IC50) in data set [3] is 1580 nM.

For `CC(C)NCc1c(C(=O)N[C@@H](C)C(C)C)noc1-c1ccc(C(F)(F)F)cc1`, in “physchem”, the thermodynamic solubility was found to be 4 µg/mL (≈ 10.1 µM). The compound also gave an IC50 in [3] of 63.1 nM.

`CC(C)NCc1c(C(=O)NC2CCCC2)noc1-c1ccc(C(F)(F)F)cc1`: the thermodynamic solubility in “physchem” is 13 µg/mL (≈ 32.9 µM). In addition, the IC50 in data set [3] is 316 nM.

In “physchem”, `CC(C)NCc1c(C(=O)N[C@H](C)C(C)C)noc1-c1ccc(C(F)(F)F)cc1` had a thermodynamic solubility of 12 µg/mL (≈ 30.2 µM). The compound further gave an IC50 in [3] of 794 nM.
